# Reference: ChEMBL document CHEMBL1148445, “Synthesis of 2',5'-dideoxy-2-fluoroadenosine and 2',5'-dideoxy-2,5'-difluoroadenosine: potent P-site inhibitors of adenylyl cyclase” (J Med Chem, 2004)
# Molecular target: Adenylate cyclase type 5 (Rattus norvegicus, UniProt Q04400)
# Test: Compound was evaluated for inhibition of adenylate cyclase from rat brain
# Type: tissue-based
# Sequence of Adenylate cyclase type 5 (Q04400 whole entry): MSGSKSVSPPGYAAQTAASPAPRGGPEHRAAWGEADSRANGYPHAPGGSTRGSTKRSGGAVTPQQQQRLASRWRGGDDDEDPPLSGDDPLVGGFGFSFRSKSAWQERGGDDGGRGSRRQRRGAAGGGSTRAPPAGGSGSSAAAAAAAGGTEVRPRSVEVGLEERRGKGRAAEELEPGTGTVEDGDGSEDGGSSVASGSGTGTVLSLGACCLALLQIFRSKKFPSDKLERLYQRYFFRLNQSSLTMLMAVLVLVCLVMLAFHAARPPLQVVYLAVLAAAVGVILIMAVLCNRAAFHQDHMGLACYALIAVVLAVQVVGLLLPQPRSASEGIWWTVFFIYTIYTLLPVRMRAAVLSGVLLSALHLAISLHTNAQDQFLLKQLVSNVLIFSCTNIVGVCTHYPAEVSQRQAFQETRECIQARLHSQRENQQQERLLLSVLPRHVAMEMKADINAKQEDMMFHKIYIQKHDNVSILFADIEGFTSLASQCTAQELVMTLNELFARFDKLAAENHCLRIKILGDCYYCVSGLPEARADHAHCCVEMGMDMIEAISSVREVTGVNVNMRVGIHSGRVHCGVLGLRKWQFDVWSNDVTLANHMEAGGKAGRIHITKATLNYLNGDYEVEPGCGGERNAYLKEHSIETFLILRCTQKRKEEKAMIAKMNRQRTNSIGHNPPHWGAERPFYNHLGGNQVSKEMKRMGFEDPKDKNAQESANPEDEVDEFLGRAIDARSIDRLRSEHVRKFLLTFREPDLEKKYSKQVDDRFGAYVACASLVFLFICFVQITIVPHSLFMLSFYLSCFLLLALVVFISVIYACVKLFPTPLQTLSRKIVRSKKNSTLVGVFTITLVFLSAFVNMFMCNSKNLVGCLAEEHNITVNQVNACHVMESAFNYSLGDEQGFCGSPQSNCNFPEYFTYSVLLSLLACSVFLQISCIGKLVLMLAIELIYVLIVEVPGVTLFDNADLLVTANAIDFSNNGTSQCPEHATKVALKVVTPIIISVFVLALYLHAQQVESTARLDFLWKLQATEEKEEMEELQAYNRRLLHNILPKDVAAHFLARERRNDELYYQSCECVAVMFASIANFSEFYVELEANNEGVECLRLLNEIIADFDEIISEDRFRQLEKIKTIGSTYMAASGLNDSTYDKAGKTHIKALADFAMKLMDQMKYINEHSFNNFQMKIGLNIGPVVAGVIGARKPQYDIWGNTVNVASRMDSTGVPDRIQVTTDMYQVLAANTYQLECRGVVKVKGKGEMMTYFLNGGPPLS
row,Structure (SMILES),IC50 [µM]
1,C[C@@H]1O[C@H](n2cnc3c(N)ncnc32)C[C@H]1O,2.8
2,Nc1nc(F)nc2c1ncn2[C@H]1C[C@H](O)[C@@H](CO)O1 (stereo in doubt; form 1),4.6
3,C[C@H]1O[C@@H](n2cnc3c(N)nc(F)nc32)C[C@@H]1O (stereo in doubt; form 1),> 100
4,Nc1nc(F)nc2c1ncn2[C@H]1C[C@H](O)[C@@H](CF)O1 (stereo in doubt; form 1),29
5,Nc1nc(F)nc2c1ncn2[C@H]1C[C@H](O)[C@@H](CO)O1 (stereo in doubt; form 2),> 100
6,C[C@H]1O[C@@H](n2cnc3c(N)nc(F)nc32)C[C@@H]1O (stereo in doubt; form 2),0.89
7,Nc1nc(F)nc2c1ncn2[C@H]1C[C@H](O)[C@@H](CF)O1 (stereo in doubt; form 2),0.98
8,Nc1ncnc2c1ncn2[C@@H]1O[C@H](CO)[C@@H](O)[C@H]1O [ADENOSINE],> 300
9,Nc1ncnc2c1ncn2[C@H]1C[C@H](O)[C@@H](CO)O1 [DEOXYADENOSINE],15
10,Nc1ncnc2c1ncn2[C@@H]1O[C@H](CO)[C@@H](O)[C@@H]1O [VIDARABINE],82
